Results published in ChEMBL document CHEMBL4627335, “Lead discovery, chemical optimization, and biological evaluation studies of novel histone methyltransferase SET7 small-molecule inhibitors” (Bioorg Med Chem Lett, 2020).
Activity calls are given as the source filed them. The rule behind the calls is not given here.

What was measured:
[1] = target: T1, Histone-lysine N-methyltransferase SETD7 (Homo sapiens, UniProt Q8WTS6); assay: Inhibition of SET7 (unknown origin) using biotinylated histone polypeptide as substrate in presence of SAM by AlphaLISA assay
T1 sequence (Q8WTS6 whole entry): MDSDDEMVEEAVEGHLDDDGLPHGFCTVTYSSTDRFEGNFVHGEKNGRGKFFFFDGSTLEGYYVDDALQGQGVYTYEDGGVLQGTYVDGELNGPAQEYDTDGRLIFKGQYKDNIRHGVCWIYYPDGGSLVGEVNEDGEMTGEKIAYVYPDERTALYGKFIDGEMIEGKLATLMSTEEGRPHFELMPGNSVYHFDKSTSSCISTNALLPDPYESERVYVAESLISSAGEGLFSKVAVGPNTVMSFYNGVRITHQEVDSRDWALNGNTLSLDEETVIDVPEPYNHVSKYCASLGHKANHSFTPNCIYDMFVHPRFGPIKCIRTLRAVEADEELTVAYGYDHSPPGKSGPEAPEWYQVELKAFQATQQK

[2] = target: Histone-lysine N-methyltransferase, H3 lysine-79 specific (Homo sapiens) (UniProt Q8TEK3); assay: Inhibition of DOT1L (unknown origin) at 100 uM
Chain of Histone-lysine N-methyltransferase, H3 lysine-79 specific (Homo sapiens) (Q8TEK3 whole entry, looked up): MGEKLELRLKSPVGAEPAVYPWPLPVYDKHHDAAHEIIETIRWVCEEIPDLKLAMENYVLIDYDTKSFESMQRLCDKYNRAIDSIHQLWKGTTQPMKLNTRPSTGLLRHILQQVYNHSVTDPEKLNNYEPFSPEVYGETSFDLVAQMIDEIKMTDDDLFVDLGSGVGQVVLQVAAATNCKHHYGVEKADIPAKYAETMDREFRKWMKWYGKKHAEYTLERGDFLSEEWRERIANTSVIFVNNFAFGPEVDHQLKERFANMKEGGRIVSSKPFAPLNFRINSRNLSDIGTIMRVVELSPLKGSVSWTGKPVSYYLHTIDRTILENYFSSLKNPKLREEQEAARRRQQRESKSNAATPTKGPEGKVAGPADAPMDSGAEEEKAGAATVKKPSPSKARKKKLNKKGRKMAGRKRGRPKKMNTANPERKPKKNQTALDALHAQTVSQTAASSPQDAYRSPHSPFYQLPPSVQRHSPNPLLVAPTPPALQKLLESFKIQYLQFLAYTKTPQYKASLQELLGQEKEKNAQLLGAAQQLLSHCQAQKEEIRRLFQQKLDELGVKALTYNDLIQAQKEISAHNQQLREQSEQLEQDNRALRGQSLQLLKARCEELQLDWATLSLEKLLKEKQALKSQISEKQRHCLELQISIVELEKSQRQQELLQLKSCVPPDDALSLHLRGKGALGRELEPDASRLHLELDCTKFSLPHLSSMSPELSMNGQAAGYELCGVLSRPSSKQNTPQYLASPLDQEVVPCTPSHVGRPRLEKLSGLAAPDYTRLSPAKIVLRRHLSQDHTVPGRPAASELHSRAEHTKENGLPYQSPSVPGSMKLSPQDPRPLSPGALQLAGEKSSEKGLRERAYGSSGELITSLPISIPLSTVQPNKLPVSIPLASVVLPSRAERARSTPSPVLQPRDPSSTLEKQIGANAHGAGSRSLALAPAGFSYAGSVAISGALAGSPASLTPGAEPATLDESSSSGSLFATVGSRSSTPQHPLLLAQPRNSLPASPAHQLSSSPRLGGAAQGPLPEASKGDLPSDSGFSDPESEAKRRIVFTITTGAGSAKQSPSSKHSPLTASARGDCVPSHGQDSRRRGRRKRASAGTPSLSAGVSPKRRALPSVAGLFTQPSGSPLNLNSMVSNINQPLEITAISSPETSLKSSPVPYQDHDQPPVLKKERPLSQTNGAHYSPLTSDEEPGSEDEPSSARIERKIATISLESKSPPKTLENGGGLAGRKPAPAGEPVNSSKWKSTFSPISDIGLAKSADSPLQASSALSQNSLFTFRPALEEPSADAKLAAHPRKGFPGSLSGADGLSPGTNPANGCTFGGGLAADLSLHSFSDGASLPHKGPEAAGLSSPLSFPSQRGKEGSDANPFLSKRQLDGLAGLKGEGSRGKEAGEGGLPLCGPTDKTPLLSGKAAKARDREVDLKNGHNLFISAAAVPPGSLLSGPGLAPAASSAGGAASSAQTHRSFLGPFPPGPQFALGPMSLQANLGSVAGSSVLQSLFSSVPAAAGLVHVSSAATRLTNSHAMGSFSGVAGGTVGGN

MCF7 = assay: Antiproliferative activity against human MCF7 cells expresses endogenous ER by Cell Titer-Glo based luminescence assay
MRC5 = assay: Cytotoxicity against human MRC5 cells assessed as reduction in cell viability by Cell Titer-Glo based luminescence assay
[3] = target: Histone-lysine N-methyltransferase, H3 lysine-36 specific (Homo sapiens) (UniProt Q96L73); assay: Inhibition of NSD1 (unknown origin) at 100 uM
Chain of Histone-lysine N-methyltransferase, H3 lysine-36 specific (Homo sapiens) (Q96L73 whole entry): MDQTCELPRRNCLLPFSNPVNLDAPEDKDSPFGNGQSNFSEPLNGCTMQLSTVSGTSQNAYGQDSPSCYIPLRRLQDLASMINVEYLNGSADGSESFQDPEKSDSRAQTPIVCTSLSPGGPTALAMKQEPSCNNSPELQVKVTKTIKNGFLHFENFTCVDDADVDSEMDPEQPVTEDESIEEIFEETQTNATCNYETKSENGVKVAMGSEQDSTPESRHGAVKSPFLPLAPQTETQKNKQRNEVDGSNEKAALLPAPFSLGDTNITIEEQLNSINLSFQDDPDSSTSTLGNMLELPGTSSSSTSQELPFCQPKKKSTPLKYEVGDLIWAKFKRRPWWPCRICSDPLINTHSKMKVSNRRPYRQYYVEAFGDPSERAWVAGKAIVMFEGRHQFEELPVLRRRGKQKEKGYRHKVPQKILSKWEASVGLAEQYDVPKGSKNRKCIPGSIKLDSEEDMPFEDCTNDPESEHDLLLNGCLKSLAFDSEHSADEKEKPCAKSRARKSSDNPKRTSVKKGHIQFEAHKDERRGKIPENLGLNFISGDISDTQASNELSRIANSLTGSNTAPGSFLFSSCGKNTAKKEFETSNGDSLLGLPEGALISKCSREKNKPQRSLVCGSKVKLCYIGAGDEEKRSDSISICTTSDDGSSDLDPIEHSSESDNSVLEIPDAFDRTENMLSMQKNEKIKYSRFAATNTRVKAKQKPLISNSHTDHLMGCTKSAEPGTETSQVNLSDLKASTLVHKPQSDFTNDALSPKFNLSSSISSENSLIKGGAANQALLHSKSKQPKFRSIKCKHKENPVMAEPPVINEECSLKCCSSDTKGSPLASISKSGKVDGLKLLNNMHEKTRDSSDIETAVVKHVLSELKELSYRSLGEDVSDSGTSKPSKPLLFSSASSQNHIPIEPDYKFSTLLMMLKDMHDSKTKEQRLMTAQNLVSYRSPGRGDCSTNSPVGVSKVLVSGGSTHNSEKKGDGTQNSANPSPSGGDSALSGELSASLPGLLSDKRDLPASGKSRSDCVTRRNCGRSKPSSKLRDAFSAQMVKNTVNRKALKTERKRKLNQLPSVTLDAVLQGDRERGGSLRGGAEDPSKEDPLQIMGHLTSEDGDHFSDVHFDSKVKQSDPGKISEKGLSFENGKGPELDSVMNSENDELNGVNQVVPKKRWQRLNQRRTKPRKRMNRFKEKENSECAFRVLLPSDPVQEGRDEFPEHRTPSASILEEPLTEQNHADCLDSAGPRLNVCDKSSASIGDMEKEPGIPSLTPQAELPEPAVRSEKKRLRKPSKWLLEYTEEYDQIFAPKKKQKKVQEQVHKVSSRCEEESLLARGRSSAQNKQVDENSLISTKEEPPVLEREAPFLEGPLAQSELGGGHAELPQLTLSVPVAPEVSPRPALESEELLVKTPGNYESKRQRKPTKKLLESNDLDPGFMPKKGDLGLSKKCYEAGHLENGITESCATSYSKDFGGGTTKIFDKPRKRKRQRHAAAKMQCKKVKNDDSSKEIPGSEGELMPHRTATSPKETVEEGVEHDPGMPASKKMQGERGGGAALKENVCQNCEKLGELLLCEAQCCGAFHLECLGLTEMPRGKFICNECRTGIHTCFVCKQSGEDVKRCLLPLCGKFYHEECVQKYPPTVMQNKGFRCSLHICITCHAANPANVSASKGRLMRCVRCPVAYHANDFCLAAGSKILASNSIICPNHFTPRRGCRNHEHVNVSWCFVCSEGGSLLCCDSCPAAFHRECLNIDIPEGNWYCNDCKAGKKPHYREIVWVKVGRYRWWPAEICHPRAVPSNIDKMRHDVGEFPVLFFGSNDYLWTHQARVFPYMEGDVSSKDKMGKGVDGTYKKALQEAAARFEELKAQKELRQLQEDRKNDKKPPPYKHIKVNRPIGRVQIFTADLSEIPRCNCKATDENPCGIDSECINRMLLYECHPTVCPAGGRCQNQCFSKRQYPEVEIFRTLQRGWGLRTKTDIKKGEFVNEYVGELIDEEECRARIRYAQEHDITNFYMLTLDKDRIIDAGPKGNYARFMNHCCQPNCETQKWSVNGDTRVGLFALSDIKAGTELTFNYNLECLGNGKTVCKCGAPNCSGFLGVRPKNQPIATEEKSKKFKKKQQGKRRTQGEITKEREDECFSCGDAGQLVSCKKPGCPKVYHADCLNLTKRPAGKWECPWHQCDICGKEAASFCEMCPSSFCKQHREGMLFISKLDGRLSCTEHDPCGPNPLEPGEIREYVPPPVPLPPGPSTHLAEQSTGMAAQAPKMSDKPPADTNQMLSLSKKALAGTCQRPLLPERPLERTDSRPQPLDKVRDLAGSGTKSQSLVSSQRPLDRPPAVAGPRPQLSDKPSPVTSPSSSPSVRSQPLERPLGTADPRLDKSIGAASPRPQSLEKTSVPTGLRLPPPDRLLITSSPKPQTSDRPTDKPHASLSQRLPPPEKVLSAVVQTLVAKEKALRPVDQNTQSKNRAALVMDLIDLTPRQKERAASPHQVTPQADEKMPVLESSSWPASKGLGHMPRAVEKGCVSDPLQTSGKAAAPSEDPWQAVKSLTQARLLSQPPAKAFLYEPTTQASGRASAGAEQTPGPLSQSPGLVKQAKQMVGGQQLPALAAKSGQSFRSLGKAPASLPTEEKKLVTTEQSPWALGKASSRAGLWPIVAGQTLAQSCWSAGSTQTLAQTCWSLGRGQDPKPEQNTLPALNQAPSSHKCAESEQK

[4] = target: T2, Histone-lysine N-methyltransferase EHMT2 (Homo sapiens) (UniProt Q96KQ7); assay: Inhibition of G9a (unknown origin) at 100 uM
T2 sequence (whole entry): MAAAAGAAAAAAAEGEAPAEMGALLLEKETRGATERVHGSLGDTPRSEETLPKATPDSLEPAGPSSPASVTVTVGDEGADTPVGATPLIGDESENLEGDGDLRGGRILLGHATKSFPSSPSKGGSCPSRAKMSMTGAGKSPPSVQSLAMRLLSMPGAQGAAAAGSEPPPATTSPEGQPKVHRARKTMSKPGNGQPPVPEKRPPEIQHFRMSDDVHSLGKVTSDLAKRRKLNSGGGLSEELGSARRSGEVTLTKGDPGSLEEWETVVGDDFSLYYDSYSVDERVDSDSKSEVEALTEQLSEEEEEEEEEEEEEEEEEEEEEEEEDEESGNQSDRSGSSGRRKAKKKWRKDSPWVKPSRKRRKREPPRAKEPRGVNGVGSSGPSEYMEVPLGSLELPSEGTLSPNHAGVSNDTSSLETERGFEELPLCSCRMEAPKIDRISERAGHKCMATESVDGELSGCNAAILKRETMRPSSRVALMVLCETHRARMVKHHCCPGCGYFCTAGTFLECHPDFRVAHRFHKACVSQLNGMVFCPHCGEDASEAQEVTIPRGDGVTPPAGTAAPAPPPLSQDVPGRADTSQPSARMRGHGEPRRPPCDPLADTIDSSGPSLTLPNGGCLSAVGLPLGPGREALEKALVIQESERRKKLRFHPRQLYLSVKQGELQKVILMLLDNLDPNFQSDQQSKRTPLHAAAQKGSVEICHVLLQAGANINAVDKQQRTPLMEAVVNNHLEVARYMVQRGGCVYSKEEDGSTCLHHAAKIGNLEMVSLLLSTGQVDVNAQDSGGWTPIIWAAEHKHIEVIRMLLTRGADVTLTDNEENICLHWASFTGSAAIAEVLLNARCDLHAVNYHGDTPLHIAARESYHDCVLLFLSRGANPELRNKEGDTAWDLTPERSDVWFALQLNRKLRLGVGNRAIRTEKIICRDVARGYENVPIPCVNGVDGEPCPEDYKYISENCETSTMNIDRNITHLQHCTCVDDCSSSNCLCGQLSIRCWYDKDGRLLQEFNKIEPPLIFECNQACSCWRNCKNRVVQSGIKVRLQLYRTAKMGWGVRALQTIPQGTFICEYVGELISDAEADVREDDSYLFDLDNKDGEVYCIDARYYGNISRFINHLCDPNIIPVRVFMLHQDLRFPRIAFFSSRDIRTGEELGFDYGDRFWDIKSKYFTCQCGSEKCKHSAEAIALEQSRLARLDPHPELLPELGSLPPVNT

[5] = target: T3, Histone-lysine N-methyltransferase SUV39H1 (Homo sapiens) (UniProt O43463); assay: Inhibition of SUV39H1 (unknown origin) at 100 uM
T3 sequence (whole entry): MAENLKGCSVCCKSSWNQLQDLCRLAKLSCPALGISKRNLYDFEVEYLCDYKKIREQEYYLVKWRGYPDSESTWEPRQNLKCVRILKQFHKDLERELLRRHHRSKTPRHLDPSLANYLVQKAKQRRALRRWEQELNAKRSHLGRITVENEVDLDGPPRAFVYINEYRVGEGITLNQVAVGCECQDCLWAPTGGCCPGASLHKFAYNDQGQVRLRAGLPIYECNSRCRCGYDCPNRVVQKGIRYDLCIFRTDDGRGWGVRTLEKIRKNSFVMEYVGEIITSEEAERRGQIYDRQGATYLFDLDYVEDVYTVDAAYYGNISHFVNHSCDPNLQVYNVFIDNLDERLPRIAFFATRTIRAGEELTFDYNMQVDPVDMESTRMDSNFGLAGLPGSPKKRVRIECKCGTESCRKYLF

HUVEC = assay: Cytotoxicity against HUVEC assessed as reduction in cell viability by Cell Titer-Glo based luminescence assay; conditions: human
[6] = target: T4, Histone-lysine N-methyltransferase SETD7 (Homo sapiens) (UniProt Q8WTS6); assay: Inhibition of SET7 in human MCF7 cells assessed as reduction in ERalpha protein expression by Western blot analysis; format: cell-based
T4 sequence (whole entry): T1 sequence (Q8WTS6 whole entry)

[7] = target: T1, Histone-lysine N-methyltransferase SETD7; assay: Binding affinity to SET7 (unknown origin) by SPR analysis
[8] = target: T5, Histone acetyltransferase KAT8 (Homo sapiens) (UniProt Q9H7Z6); assay: Inhibition of MOF (unknown origin) at 100 uM
T5 sequence (whole entry): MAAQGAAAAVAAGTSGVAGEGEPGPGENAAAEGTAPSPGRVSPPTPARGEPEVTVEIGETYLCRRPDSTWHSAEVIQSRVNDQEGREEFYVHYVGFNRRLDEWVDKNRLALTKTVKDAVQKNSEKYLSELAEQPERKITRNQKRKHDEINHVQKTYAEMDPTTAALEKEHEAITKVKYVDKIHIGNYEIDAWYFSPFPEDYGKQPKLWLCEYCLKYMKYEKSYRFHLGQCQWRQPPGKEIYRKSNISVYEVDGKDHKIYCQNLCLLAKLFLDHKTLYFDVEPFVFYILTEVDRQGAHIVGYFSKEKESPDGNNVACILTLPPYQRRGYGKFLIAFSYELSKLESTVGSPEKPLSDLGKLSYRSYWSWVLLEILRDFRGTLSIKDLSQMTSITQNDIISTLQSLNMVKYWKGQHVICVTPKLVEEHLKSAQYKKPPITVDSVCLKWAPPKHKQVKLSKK

[9] = target: T4, Histone-lysine N-methyltransferase SETD7 (Homo sapiens); assay: Inhibition of SET7 (unknown origin) at 100 uM

Compound | IC50 [1] [µM] | other results
O=C1C=CC(=O)C(c2ccc(Br)cc2)=C1 | > 200 | –
COc1ccc(OC)c(-c2ccc(CN3CCCC3)c(NS(=O)(=O)c3ccccc3)c2)c1 | > 200 | –
CN(C)CCNC(=O)c1ccc(-c2ccc(C#N)cc2)cc1 | > 200 | –
COc1ccc(OC)c(-c2ccc(CN3CCCC3)c([N+](=O)[O-])c2)c1 | > 200 | –
O=C1C=CC(=O)C(c2ccc(CN3CCOCC3)c(NS(=O)(=O)c3ccc(C(F)(F)F)cc3)c2)=C1 | > 200 | –
COc1ccc(OC)c(-c2ccc(CN3CCOCC3)c(NS(=O)(=O)c3ccccc3)c2)c1 | > 200 | –
COc1ccc(OC)c(-c2ccc(CN3CCCC3)c(N)c2)c1 | > 200 | –
COC(=O)c1ccc(C2=CC(=O)C=CC2=O)o1 | 15.9 | inhibition [2]: inactive; IC50 (MCF7): 25.8 µM; Activity (MRC5): Toxic; inhibition [3]: inactive; inhibition [4]: inactive; inhibition [5]: inactive; Activity (HUVEC): Toxic; inhibition [6]: Dose-dependent effect; Kd [7]: 18 µM; inhibition [8]: inactive; inhibition [9]: Active
COC1=CC(=O)c2ccccc2C1=O [2-Methoxy-1,4-naphthoquinone] | > 200 | –
CCCCc1ccc(C2=CC(=O)C=CC2=O)cc1 | > 200 | –
O=C1C=C(O)C(=O)c2ccccc21 [LAWSONE] | > 200 | –
N#Cc1cccc(-c2ccc(C(=O)N3CCNCC3)cc2)c1 | > 200 | –
COc1ccc(OC)c(-c2ccc(CN3CCN(C(=O)OC(C)(C)C)CC3)cc2)c1 | > 200 | –

Second part, led by results:

IC50 [1] [µM] | Compound | other results
> 200 | O=C1C=CC(=O)C(c2cccc(C(F)(F)F)c2)=C1 | –
> 200 | N#Cc1cccc(-c2ccc(C(=O)O)cc2)c1 | –
> 200 | O=C1C=CC(=O)C(c2ccc(CN3CCOCC3)c(NS(=O)(=O)c3ccc([N+](=O)[O-])cc3)c2)=C1 | –
> 200 | O=C1C=CC(=O)C(c2ccc(CN3CCCC3)c(NS(=O)(=O)c3ccc(C(F)(F)F)cc3)c2)=C1 | –
> 200 | Cc1ccc(C2=CC(=O)C=CC2=O)cc1 | –
> 200 | COc1ccc(OC)c(-c2ccc(CN3CCN(C(=O)OC(C)(C)C)CC3)c(N)c2)c1 | –
> 200 | CC(C)c1ccc(C2=CC(=O)C=CC2=O)cc1 | –
> 200 | CN(C)CCNC(=O)c1ccc(-c2cccc(C#N)c2)cc1 | –
> 200 | CC(C)(C)OC(=O)N1CCN(C(=O)c2ccc(-c3cccc(C#N)c3)cc2)CC1 | –
> 200 | Cc1ccc(C2=CC(=O)C=CC2=O)cc1C | –
> 200 | CC(C)(C)OC(=O)N1CCN(C(=O)c2ccc(-c3ccc(C#N)cc3)cc2)CC1 | –
> 200 | N#Cc1ccc(-c2ccc(C(=O)O)cc2)cc1 | –
> 200 | O=C1C=CC(=O)C(c2ccc(CN3CCOCC3)c(NS(=O)(=O)c3ccc(Cl)cc3)c2)=C1 | –
